Patent US20230048678A1, “ICAN DERIVATIVES FOR ANTIFUNGAL USE” (DEBRECENI EGYETEM, priority 2019, published 2023)
Values joined by “and” are separate entries in the source; they are usually repeats but may differ in a detail not shown here. Equal values may be shown once.

Legend:
[1] = system: C. albicans SC5314, C. krusei ATCC 6258 and C. parapsilosis ATCC 22019; assay: CLSI broth microdilution, MIC summarised over the three Candida test strains; assay type: cell-based; settings: value or range over the three Candida strains of Table 1, total inhibition
Experimental: ICAN has 3 key moieties, namely the amino, naphthalene and isonitrile. To find out which ones of them are essential for the antifungal behavior and to design more efficient derivatives, comparative studies were carried out, where one of the moieties was exchanged or eliminated. All ICAN derivatives were tested against C. albicans SC5314, C. krusei ATCC 6258 and C. parapsilosis ATCC 22019. The antifungal agents were dissolved in 100% DMSO and diluted further in RPMI-1640 (with L-glutamine but without bicarbonate) and buffered to pH 7.0 with 0.165 M morpholinopropanesulfonic acid (MOPS). MICs were read visually after 48-h incubation at 35° C. using the partial (50%) inhibition (for ICAN derivatives) (PI) and total inhibition (for AMB and ICAN derivatives) (TI) criteria. MICs were determined at least twice.
(§1) The tested C. albicans, C. tropicalis, C. parapsilosis, C. glabrata and C. krusei ATCC strains and clinical isolates are listed in Table 2. MICs were determined according to the CLSI M27-A3 [22]. Antifungal agents were dissolved in 100% DMSO and diluted further in RPMI-1640 (with L-glutamine but without bicarbonate) (Sigma, Budapest, Hungary), and buffered to pH 7.0 with 0.165 M morpholinopropanesulfonic acid (MOPS; Sigma, Budapest, Hungary). The final concentration ranges used for AMB and ICAN derivatives were 0.125 to 4 μg/ml and 0.04 to 20 μg/ml, respectively. Yeast cell suspensions were prepared in RPMI 1640 medium and were adjusted to give a final inoculum concentration of 0.5×10^3 to 2.5×10^3 cells/ml. MICs were read visually after 48-h incubation at 35° C. using the partial (50%) inhibition (for ICAN derivatives) (PI) and total inhibition (for AMB and ICAN derivatives) (TI) criteria. MICs were determined at least twice. For amphotericin B isolates with MIC values of ≤2 mg/L were considered wild-types. [Pfaller M A, 2012]

[2] = system: C. albicans isolates; assay: CLSI M27-A3 broth microdilution on Candida isolates (Table 2); assay type: cell-based
Experimental: as §1

[3] = system: C. glabrata isolates; assay: as above; assay type: cell-based
Experimental: as §1

[4] = system: C. krusei isolates; assay: as above; assay type: cell-based
Experimental: as §1

[5] = system: C. parapsilosis isolates; assay: as above; assay type: cell-based
Experimental: as §1

[6] = system: C. tropicalis isolates; assay: as above; assay type: cell-based
Experimental: as §1

[7] = system: human cell cultures; settings: from [Nagy M 2018, Nagy Z L; cited from earlier work

[C-]#[N+]c1cccc2c(N(C)C)cccc12 [DIMICAN, N,N-dimethyl-1-amino-5-isocyanonaphthalene]
MICTI [1]: 0.6 µg/mL and 0.3 to 0.6 µg/mL
MICPI ([2]; isolate 456): ≤0.04 µg/mL
MICTI ([2]; isolate 456): 0.6 µg/mL
MICPI ([2]; isolate 665): ≤0.04 µg/mL
MICTI ([2]; isolate 665): 0.6 µg/mL
MICPI ([2]; isolate 685): ≤0.04 µg/mL
MICTI ([2]; isolate 685): 0.6 µg/mL
MICPI ([2]; isolate 720): ≤0.04 µg/mL
MICTI ([2]; isolate 720): 0.6 µg/mL
MICPI ([2]; isolate 963): ≤0.04 µg/mL
MICTI ([2]; isolate 963): 0.6 µg/mL
MICPI ([2]; isolate 1544): ≤0.04 µg/mL
MICTI ([2]; isolate 1544): 0.6 µg/mL
MICPI ([2]; isolate 3666): ≤0.04 µg/mL
MICTI ([2]; isolate 3666): 0.6 µg/mL
MICPI ([2]; isolate 8658): ≤0.04 µg/mL
MICTI ([2]; isolate 8658): 0.6 µg/mL
MICPI ([2]; isolate ATCC 10231): ≤0.04 µg/mL
MICTI ([2]; isolate ATCC 10231): 0.3 µg/mL
MICPI ([3]; isolate 14408): ≤0.04 µg/mL
MICTI ([3]; isolate 14408): 0.08 µg/mL
MICPI ([3]; isolate 14559): ≤0.04 µg/mL
MICTI ([3]; isolate 14559): 0.3 µg/mL
MICPI ([3]; isolate 22394): ≤0.04 µg/mL
MICTI ([3]; isolate 22394): 0.3 µg/mL
MICPI ([3]; isolate 23429): ≤0.04 µg/mL
MICTI ([3]; isolate 23429): 0.3 µg/mL
MICPI ([3]; isolate 23481): 0.08 µg/mL
MICTI ([3]; isolate 23481): 1.25 µg/mL
MICPI ([3]; isolate 27643): 0.08 µg/mL
MICTI ([3]; isolate 27643): 0.3 µg/mL
MICPI ([3]; isolate 28557): ≤0.04 µg/mL
MICTI ([3]; isolate 28557): 0.6 µg/mL
MICPI ([3]; isolate ATCC 90030): 0.15 µg/mL
MICTI ([3]; isolate ATCC 90030): 0.3 µg/mL
MICPI ([4]; isolate 749): 0.08 µg/mL
MICTI ([4]; isolate 749): 0.08 µg/mL
MICPI ([4]; isolate 1853): 0.08 µg/mL
MICTI ([4]; isolate 1853): 0.3 µg/mL
MICPI ([4]; isolate 4364): ≤0.04 µg/mL
MICTI ([4]; isolate 4364): 0.15 µg/mL
MICPI ([4]; isolate 5029): ≤0.04 µg/mL
MICTI ([4]; isolate 5029): 0.08 µg/mL
MICPI ([4]; isolate 5072): 0.08 µg/mL
MICTI ([4]; isolate 5072): 0.3 µg/mL
MICPI ([4]; isolate 25504): 0.08 µg/mL
MICTI ([4]; isolate 25504): 0.3 µg/mL
MICPI ([4]; isolate 34987): ≤0.04 µg/mL
MICTI ([4]; isolate 34987): 0.08 µg/mL
MICPI ([4]; isolate ATCC 6258): 0.15 µg/mL
MICTI ([4]; isolate ATCC 6258): 0.3 µg/mL
MICPI ([5]; isolate 4133): 0.08 µg/mL
MICTI ([5]; isolate 4133): 0.08 µg/mL
MICPI ([5]; isolate 9613): 0.15 µg/mL
MICTI ([5]; isolate 9613): 0.15 µg/mL
MICPI ([5]; isolate 10252): ≤0.04 µg/mL
MICTI ([5]; isolate 10252): 0.08 µg/mL
MICPI ([5]; isolate 18154): 0.08 µg/mL
MICTI ([5]; isolate 18154): 0.6 µg/mL
MICPI ([5]; isolate 27001): ≤0.04 µg/mL
MICTI ([5]; isolate 27001): 0.3 µg/mL
MICPI ([5]; isolate ATCC 22019): 0.15 µg/mL
MICTI ([5]; isolate ATCC 22019): 0.6 µg/mL
MICPI ([6]; isolate 579): 0.08 µg/mL
MICTI ([6]; isolate 579): 0.6 µg/mL
MICPI ([6]; isolate 622): 0.08 µg/mL
MICTI ([6]; isolate 622): 0.3 µg/mL
MICPI ([6]; isolate 1776): 0.08 µg/mL
MICTI ([6]; isolate 1776): 0.3 µg/mL
MICPI ([6]; isolate 2467): 0.15 µg/mL
MICTI ([6]; isolate 2467): 1.25 µg/mL
MICPI ([6]; isolate 3014): 0.08 µg/mL
MICTI ([6]; isolate 3014): 0.6 µg/mL
MICPI ([6]; isolate 5115): 0.08 µg/mL
MICTI ([6]; isolate 5115): 1.25 µg/mL
MICPI ([6]; isolate 5806): 0.08 µg/mL
MICTI ([6]; isolate 5806): 0.15 µg/mL
MICPI ([6]; isolate ATCC 750): 0.15 µg/mL
MICTI ([6]; isolate ATCC 750): 1.25 µg/mL
cytotoxic effect [7]: no cytotoxic effect
